# Data taken from PMC4365076, “The phage growth limitation system in Streptomyces coelicolor A(3)2 is a toxin/antitoxin system, comprising enzymes with DNA methyltransferase, protein kinase and ATPase activity” (Virology, 2015).
# Where a chain is given by its changes, count along the chain named. Names and notes keep the numbering of the source.
# T1: PglX (PglX–His6) (Streptomyces coelicolor, UniProt Q8CJM2)
# T1 construct: NPPY motif at 378–381
# T1 sequence (Q8CJM2 1-1210): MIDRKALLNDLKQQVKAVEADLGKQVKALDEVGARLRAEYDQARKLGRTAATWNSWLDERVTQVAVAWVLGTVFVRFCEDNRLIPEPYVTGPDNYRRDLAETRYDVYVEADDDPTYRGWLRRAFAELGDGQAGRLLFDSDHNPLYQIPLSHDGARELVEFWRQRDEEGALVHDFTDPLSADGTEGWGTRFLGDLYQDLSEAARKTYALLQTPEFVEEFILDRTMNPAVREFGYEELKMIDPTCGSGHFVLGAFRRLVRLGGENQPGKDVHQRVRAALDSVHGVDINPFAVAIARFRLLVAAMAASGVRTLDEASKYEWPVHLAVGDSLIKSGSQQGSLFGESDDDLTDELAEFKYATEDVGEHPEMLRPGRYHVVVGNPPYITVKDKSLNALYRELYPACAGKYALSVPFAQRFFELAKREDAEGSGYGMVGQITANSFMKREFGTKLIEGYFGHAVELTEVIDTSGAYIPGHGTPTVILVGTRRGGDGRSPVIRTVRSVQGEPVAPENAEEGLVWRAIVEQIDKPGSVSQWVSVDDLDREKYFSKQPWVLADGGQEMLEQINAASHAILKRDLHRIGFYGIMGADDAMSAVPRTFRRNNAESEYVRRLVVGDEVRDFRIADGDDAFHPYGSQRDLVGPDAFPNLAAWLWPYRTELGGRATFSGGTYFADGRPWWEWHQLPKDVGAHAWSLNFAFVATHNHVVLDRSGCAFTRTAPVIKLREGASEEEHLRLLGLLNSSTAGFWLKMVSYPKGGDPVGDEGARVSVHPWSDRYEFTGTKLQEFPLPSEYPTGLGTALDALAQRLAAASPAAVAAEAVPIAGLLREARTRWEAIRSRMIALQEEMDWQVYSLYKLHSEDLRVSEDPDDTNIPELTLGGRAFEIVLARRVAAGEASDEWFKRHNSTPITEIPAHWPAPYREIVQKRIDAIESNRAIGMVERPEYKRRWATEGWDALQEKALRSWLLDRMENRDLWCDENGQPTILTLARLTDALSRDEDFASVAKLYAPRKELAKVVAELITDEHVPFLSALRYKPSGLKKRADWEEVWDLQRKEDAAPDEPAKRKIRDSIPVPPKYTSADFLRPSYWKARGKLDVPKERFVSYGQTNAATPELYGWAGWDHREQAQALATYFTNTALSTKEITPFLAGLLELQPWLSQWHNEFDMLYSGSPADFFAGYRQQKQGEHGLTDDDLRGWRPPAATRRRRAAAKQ
# T2: PglY (His6–PglY) (Streptomyces coelicolor, UniProt O86682)
# T2 construct: ~160 kDa band, MALDI-TOF identified; Walker A GSFGSGKS at 75–82
# T2 sequence (O86682 1-1294): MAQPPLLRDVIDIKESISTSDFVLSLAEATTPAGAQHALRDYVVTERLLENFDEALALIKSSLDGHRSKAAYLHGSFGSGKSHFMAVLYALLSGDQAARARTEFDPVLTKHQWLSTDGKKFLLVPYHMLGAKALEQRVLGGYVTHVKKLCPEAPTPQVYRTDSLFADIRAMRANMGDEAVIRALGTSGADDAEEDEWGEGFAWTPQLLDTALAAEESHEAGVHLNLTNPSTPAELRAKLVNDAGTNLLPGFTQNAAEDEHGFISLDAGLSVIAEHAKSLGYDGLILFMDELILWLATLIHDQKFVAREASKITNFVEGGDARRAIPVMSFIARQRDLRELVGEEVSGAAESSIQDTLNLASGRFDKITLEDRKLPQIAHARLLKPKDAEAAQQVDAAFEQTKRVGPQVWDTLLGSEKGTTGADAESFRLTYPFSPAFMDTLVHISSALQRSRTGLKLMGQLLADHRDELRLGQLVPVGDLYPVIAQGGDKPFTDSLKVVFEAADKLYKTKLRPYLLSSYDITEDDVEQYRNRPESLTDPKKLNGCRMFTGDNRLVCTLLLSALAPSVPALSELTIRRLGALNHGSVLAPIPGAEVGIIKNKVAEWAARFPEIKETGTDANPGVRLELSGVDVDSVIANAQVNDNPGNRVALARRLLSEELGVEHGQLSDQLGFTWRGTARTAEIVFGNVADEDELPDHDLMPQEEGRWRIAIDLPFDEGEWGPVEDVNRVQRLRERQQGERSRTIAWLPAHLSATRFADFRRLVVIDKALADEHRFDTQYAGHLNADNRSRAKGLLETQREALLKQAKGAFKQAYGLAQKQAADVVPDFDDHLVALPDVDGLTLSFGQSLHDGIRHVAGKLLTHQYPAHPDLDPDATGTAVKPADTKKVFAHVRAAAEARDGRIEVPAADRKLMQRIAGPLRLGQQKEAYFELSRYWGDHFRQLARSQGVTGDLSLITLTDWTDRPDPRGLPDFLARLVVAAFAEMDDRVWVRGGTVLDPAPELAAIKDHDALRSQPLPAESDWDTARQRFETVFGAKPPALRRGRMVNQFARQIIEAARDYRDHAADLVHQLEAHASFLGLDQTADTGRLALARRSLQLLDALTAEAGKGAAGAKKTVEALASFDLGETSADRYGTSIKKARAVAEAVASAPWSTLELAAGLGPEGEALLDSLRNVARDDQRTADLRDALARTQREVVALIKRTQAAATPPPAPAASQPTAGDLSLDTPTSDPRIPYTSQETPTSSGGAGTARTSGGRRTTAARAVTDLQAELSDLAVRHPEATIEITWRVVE
# B1: PglY (His6–PglY) (Streptomyces coelicolor A3(2)) (protein)
# chain: T2 sequence (O86682 1-1294)
# notes: ~160 kDa band, MALDI-TOF identified; Walker A GSFGSGKS at 75–82
# B2: PglY (His6–PglY) (Streptomyces coelicolor A3(2); K81A/S82A) (protein)
# chain: T2 sequence (O86682 1-1294) with K81A, S82A
# notes: as for B1
# Assays:
# PglX (PglX–His6) = molecular target: T1, PglX (PglX–His6); test: 3H-methyl incorporation into DNA, scintillation counting; assay type: biochemical; conditions: 12 μM labelled compound, phage ϕC31 DNA co-substrate, 1 mM EDTA, pH 7.5, 30 °C; partially purified enzyme
# PglY (His6–PglY) = molecular target: T2, PglY (His6–PglY); test: inhibition of ATP hydrolysis, Pi release, malachite green; assay type: biochemical; conditions: 1–3 mM ADP-NP against 1–3 mM ATP; 30 °C, pH 8.0, 10 mM MgCl2
# [1] = substrate: Nc1ncnc2c1ncn2[C@@H]1O[C@H](COP(=O)(O)OP(=O)(O)OP(=O)(O)O)[C@@H](O)[C@H]1O; test: Pi release, malachite green; assay type: biochemical, Streptomyces coelicolor; conditions: 30 °C, 40 mM HEPES pH 8.0, 10 mM MgCl2, 10 mM DTT, 0.1 mg/ml BSA
molecule,measurement,setting,value
C[S+](CC[C@H](N)C(=O)O)C[C@H]1O[C@@H](n2cnc3c(N)ncnc32)[C@H](O)[C@@H]1O (stereo partly shown) [AdoMet],"3H-methyl incorporation into DNA, scintillation counting",PglX (PglX–His6),incorporation of label into TCA precipitable material was dependent on DNA addition
Nc1ncnc2c1ncn2[C@@H]1O[C@H](COP(=O)(O)OP(=O)(O)NP(=O)(O)O)[C@@H](O)[C@H]1O [ADP-NP],"inhibition of ATP hydrolysis, Pi release, malachite green",PglY (His6–PglY),"severely inhibited rate of hydrolysis of ATP, indicative of ADP-NP binding and inhibition of activity"
B1,Km,[1],0.5 mM
B2,Km,[1]; Walker A double mutant,100 mM
